Experiments:
[1] = test system: HCV replicon in human hepatoma Huh-7 cell line; assay: Anti-HCV replicon assay (EC50, luciferase); assay type: cell-based; details: Hepatitis C virus, Huh-7, 72 h
Summary of the method: (§1)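 Cytotoxicity (CC50) measured by CellTiter-Glo and antiviral activity (EC50) by luciferase signal from lysed cells, both by luminescence. Replicon-bearing Huh-7 cells, 6000 per well, incubated 3 days at 37 °C with threefold-diluted compound (0.5% DMSO for DMSO-dissolved compounds).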

[2] = CC50 assay (CellTiter-Glo) in Huh-7 HCV replicon cells; assay type: cell-based, human; details: human, 3 days incubation, CellTiter-Glo readout
Summary of the method: as §1

NS(=O)(=O)c1ccc(CNc2nc(NCC(F)(F)F)c3nc(-c4ccc(NC(=O)[C@H]5CCNC5)c(F)c4)ccc3n2)cc1 [Example 219, Pyrrolidine-3-carboxylic acid {2-fluoro-4-[2-(4-sulfamoyl-benzylamino)-4-(2,2,2-trifluoro-ethylamino)-pyrido[3,2-d]pyrimidin-6-yl]-phenyl}-amide] showed an EC50 [1] of under 0.1 µM and a CC50 at 3 days [2] of under 5 µM.
For C[C@@H](O)C(=O)Nc1ccc(-c2ccc3nc(NCc4ccc(S(N)(=O)=O)cc4)nc(NCC(F)(F)F)c3n2)cc1 [Example 220, 2-Hydroxy-N-{4-[2-(4-sulfamoyl-benzylamino)-4-(2,2,2-trifluoro-ethylamino)-pyrido[3,2-d]pyrimidin-6-yl]-phenyl}-propionamide], the EC50 [1] was under 0.1 µM and the CC50 at 3 days [2] was 5 to 25 µM.
For C[C@H](N)C(=O)Nc1ccc(-c2ccc3nc(NCc4ccc(S(N)(=O)=O)cc4)nc(NCC(F)(F)F)c3n2)cc1 [Example 221, 2-Amino-N-{4-[2-(4-sulfamoyl-benzylamino)-4-(2,2,2-trifluoro-ethylamino)-pyrido[3,2-d]pyrimidin-6-yl]-phenyl}-propionamide], the EC50 [1] was under 0.1 µM and the CC50 at 3 days [2] was over 25 µM.
For NS(=O)(=O)c1ccc(CNc2nc(NCC(F)(F)F)c3nc(-c4ccc(NC(=O)[C@H]5CCNC5)cc4)ccc3n2)cc1 [Example 222, Pyrrolidine-3-carboxylic acid {4-[2-(4-sulfamoyl-benzylamino)-4-(2,2,2-trifluoro-ethylamino)-pyrido[3,2-d]pyrimidin-6-yl]-phenyl}-amide], the EC50 [1] was under 0.1 µM and the CC50 at 3 days [2] was 5 to 25 µM.
In the case of NS(=O)(=O)c1ccc(CNc2nc(NCC(F)(F)F)c3nc(-c4ccc(NC(=O)OCCN5CCCC5)cc4)ccc3n2)cc1 [Example 223, {4-[2-(4-Sulfamoyl-benzylamino)-4-(2,2,2-trifluoro-ethylamino)-pyrido[3,2-d]pyrimidin-6-yl]-phenyl}-carbamic acid 2-pyrrolidin-1-yl-ethyl ester], the EC50 [1] is reported as under 0.1 µM and the CC50 at 3 days [2] is reported as 5 to 25 µM.
With NS(=O)(=O)c1cc(-c2ccc3nc(NCc4ccc(F)cc4)nc(NCC(F)(F)F)c3n2)ccc1F [Example 224, 2-Fluoro-5-[2-(4-fluoro-benzylamino)-4-(2,2,2-trifluoro-ethylamino)-pyrido[3,2-d]pyrimidin-6-yl]-benzenesulfonamide] the EC50 [1] was under 0.1 µM and the CC50 at 3 days [2] was over 25 µM.
With NS(=O)(=O)c1ccc(CNc2nc(NCC(F)(F)F)c3nc(-c4ccc(F)c(S(N)(=O)=O)c4)ccc3n2)cc1 [Example 225, 2-Fluoro-5-[2-(4-sulfamoyl-benzylamino)-4-(2,2,2-trifluoro-ethylamino)-pyrido[3,2-d]pyrimidin-6-yl]-benzenesulfonamide] the EC50 [1] was under 0.1 µM and the CC50 at 3 days [2] was over 25 µM.
Molecule CCOc1nc(NCc2ccc(S(N)(=O)=O)cc2)nc2ccc(-c3ccc(NC(=O)[C@@H](N)[C@H](C)O)cc3)nc12 [Example 226, 2-Amino-N-{4-[4-ethoxy-2-(4-sulfamoyl-benzylamino)-pyrido[3,2-d]pyrimidin-6-yl]-phenyl}-3-hydroxy-butyramide] has an EC50 [1] of under 0.1 µM and a CC50 at 3 days [2] of over 25 µM.
In the case of CCOc1nc(NCc2ccc(S(N)(=O)=O)cc2)nc2ccc(-c3ccc(N4CC(O)CC4=O)cc3)nc12 (stereo not shown) [Example 227, 4-({4-Ethoxy-6-[4-(4-hydroxy-2-oxo-pyrrolidin-1-yl)-phenyl]-pyrido[3,2-d]pyrimidin-2-ylamino}-methyl)-benzenesulfonamide], the EC50 [1] is reported as under 0.1 µM and the CC50 at 3 days [2] is reported as over 25 µM.
For NS(=O)(=O)c1ccc(CNc2nc(Nc3ccc(-n4cncn4)cc3)c3nc(-c4ccc(F)cc4)ccc3n2)cc1 [Example 228, 4-{[6-(4-Fluoro-phenyl)-4-(4-[1,2,4]triazol-1-yl-phenylamino)-pyrido[3,2-d]pyrimidin-2-ylamino]-methyl}-benzenesulfonamide], the EC50 [1] was under 0.1 µM and the CC50 at 3 days [2] was under 5 µM.
NS(=O)(=O)c1ccc(CNc2nc(Nc3cccc(F)c3)c3nc(-c4ccc(F)cc4)ccc3n2)cc1 [Example 229, 4-{[6-(4-Fluoro-phenyl)-4-(3-fluoro-phenylamino)-pyrido[3,2-d]pyrimidin-2-ylamino]-methyl}-benzenesulfonamide] gave an EC50 [1] of under 0.1 µM and a CC50 at 3 days [2] of under 5 µM.
In the case of CS(=O)(=O)Nc1cc(-c2ccc3nc(NCc4ccc(S(N)(=O)=O)cc4)nc(NCC(F)(F)F)c3n2)ccc1F [Example 230, 4-{[6-(4-Fluoro-3-methanesulfonylamino-phenyl)-4-(2,2,2-trifluoro-ethylamino)-pyrido[3,2-d]pyrimidin-2-ylamino]-methyl}-benzenesulfonamide], the EC50 [1] is reported as under 0.1 µM and the CC50 at 3 days [2] is reported as 5 to 25 µM.
For NS(=O)(=O)c1ccc(CNc2nc(NCC(F)(F)F)c3nc(-c4ccc(F)c(NS(=O)(=O)C5CC5)c4)ccc3n2)cc1 [Example 231, 4-{[6-(3-Cyclopropanesulfonylamino-4-fluoro-phenyl)-4-(2,2,2-trifluoro-ethylamino)-pyrido[3,2-d]pyrimidin-2-ylamino]-methyl}-benzenesulfonamide], the EC50 [1] was under 0.1 µM and the CC50 at 3 days [2] was over 25 µM.
In the case of NS(=O)(=O)c1ccc(CNc2nc(NCC(F)(F)F)c3nc(-c4cccc(S(N)(=O)=O)c4)ccc3n2)cc1 [Example 232, 3-[2-(4-sulfamoyl-benzylamino)-4-(2,2,2-trifluoro-ethylamino)-pyrido[3,2-d]pyrimidin-6-yl]-benzenesulfonamide], the EC50 [1] is reported as under 0.1 µM and the CC50 at 3 days [2] is reported as over 25 µM.
NS(=O)(=O)c1ccc(CNc2nc(NCC(F)(F)F)c3nc(-c4ccc(F)c(Cl)c4)ccc3n2)cc1 [Example 233, 4-{[6-(3-Chloro-4-fluoro-phenyl)-4-(2,2,2-trifluoro-ethylamino)-pyrido[3,2-d]pyrimidin-2-ylamino]-methyl}-benzenesulfonamide] showed an EC50 [1] of under 0.1 µM and a CC50 at 3 days [2] of 5 to 25 µM.
In the case of NS(=O)(=O)c1ccc(CNc2nc(OC3CC3)c3nc(-c4ccc(F)cc4)ccc3n2)cc1 [Example 234, 4-{[4-Cyclopropoxy-6-(4-fluoro-phenyl)-pyrido[3,2-d]pyrimidin-2-ylamino]-methyl}-benzenesulfonamide], the EC50 [1] is reported as under 0.1 µM and the CC50 at 3 days [2] is reported as 5 to 25 µM.
NS(=O)(=O)c1ccc(CNc2nc(Oc3cccc(F)c3)c3nc(-c4ccc(F)cc4)ccc3n2)cc1 [Example 235, 4-{[4-(3-Fluoro-phenoxy)-6-(4-fluoro-phenyl)-pyrido[3,2-d]pyrimidin-2-ylamino]-methyl}-benzenesulfonamide] gave an EC50 [1] of under 0.1 µM and a CC50 at 3 days [2] of 5 to 25 µM.
COCCOc1nc(NCc2ccc(S(N)(=O)=O)cc2)nc2ccc(-c3ccc(F)c(Cl)c3)nc12 [Example 236, 4-{[6-(3-Chloro-4-fluoro-phenyl)-4-(2-methoxy-ethoxy)-pyrido[3,2-d]pyrimidin-2-ylamino]-methyl}-benzenesulfonamide] showed an EC50 [1] of under 0.1 µM and a CC50 at 3 days [2] of 5 to 25 µM.
COCCOc1nc(NCc2ccc(S(N)(=O)=O)cc2)nc2ccc(-c3ccc(F)cc3)nc12 [Example 237, 4-{[6-(4-Fluoro-phenyl)-4-(2-methoxy-ethoxy)-pyrido[3,2-d]pyrimidin-2-ylamino]-methyl}-benzenesulfonamide] gave an EC50 [1] of under 0.1 µM and a CC50 at 3 days [2] of under 5 µM.
Molecule NS(=O)(=O)c1cccc(CNc2nc(NCC(F)(F)F)c3nc(-c4ccc(F)cc4)ccc3n2)c1 [Example 238, 3-{[6-(4-Fluoro-phenyl)-4-(2,2,2-trifluoro-ethylamino)-pyrido[3,2-d]pyrimidin-2-ylamino]-methyl}-benzenesulfonamide] has an EC50 [1] of under 0.1 µM and a CC50 at 3 days [2] of under 5 µM.

From US8729089B2 (Gilead Sciences, Inc., priority 2006, dated 2014)
